Measurements from patent US20030096264A1, “Multi-parameter high throughput screening assays (MPHTS)” (Psychiatric Genomics, Inc., priority 2001, published 2003).

Legend:
[1] = system: rat (rattus norvegicus) neuronal cells; assay: Microarray expression profile of primary rat cortical neurons incubated with valproate; assay type: cell-based; conditions: 0.5 mM valproate, 3 days
Description: This example describes experiments, which analyzed changes in the expression profile for rat (rattus norvegicus) neuronal cells induced by valproate, a drug used clinically to treat neuropsychiatric disorders such as bipolar disorder. […] Expression profiles for these genes are compared to expression profiles for orthologous genes in human schizophrenia patients.
Primary neuron cells were isolated from E19 rat embryos and cultured as follows. First, the cortex was dissected from each embryo and placed in HBSS solution. The HBSS solution was subsequently removed and replaced with 5 ml papain solution at a concentration of 10 units per ml. The cortex was then incubated in the papain solution for 10 minutes and at 37° C. After incubation, the Papain solution was removed and 10% NuSerum media (Becton Dickinson, Bedford Mass.) was added in its place. The cortex was then centrifuged at 1000 rpm for 10 minutes, after which time the solution was removed and 1 ml of media containing 0.1% DNase was added. Cells were titurated immediately to break up the tissue. The volume of the cell suspensions was brought up to 15 ml and the cells were counted.
Approximately 4×10^6 cells were plated per 10 cm dish, in NeuroBasal A (Invitrogen Corp., Carlsbad Calif.) medium containing B27 and insulin (25 μg/ml). The cell cultures were incubated in a humidified incubator with 5% CO2 and at 37° C. The culture media were changed every 2 days. Cells were incubated in 0.5 mM valproate for 3 days. Control cultures were also prepared and incubated under the same conditions (including the carrier DMSO) but without valproate.
mRNA was extracted from each group of cultures and expression profiles were measured on microarrays according to standard techniques (see the Detailed Description section, infra). Data from duplicate microarrays was statistically evaluated to identify genes that are differentially expressed in the presence of valproate, relative to expression levels in the absence of valproate.
Table 1, below, lists the twelve genes identified in these experiments as being differentially expressed in the presence of valproate, relative to its expression level in the absence of valproate. These genes were identified using a Rat Toxicology array from Incyte (Palo Alto, Calif.). Each gene is listed in Table 1 by its common or popular name, along with the GenBank Accession and Gene Identification (GI) numbers of the rat gene whose expression level was evaluated in these experiments. The “expression ratio” measured for each gene is also specified. Specifically, the expression ratio, Φ, was calculated using the formula: [formula]
where Ev is the expression level measured in cells incubated with valproate and Eo is the expression level in the absence of valproate.

NBFL cell line = assay: RT-PCR validation of differential expression in NBFL cells treated with valproate; assay type: cell-based, human; conditions: valproate treated vs untreated, normalized to GAPDH
Protocol: To validate differential expression measurements that were obtained using microarrays, expression levels were also measured using a reverse transcription polymerase chain reaction (RT-PCR) assay for five genes having the highest expression ratio in Table 3: nidogen (SEQ ID NO:25; σ=1.7), silver (SEQ ID NO:26; σ=1.6), dopamine β-hydroxylase (SEQ ID NO:53; σ=-1.7), dopa decarboxylase (SEQ ID NO:54; σ=−2) and chromogranin B (SEQ ID NO:55; σ=−2.1). These RT-PCR experiments were performed according to routine methods that are known in 10 the art. Briefly, RNA from the NBFL cell line treated with or without valproate was primed with oligo-dT and reverse transcribed. The resultant cDNA was subjected to either 25 or 30 rounds of PCR amplification, depending on the absolute expression level of the gene tested. The amount of PCR product generated from each sample was normalized to the amount of GAPDH amplified from each sample and a fold-change relative to valproate treatment was calculated. β-actin was used as an additional control.
The results from these experiments are shown graphically in FIG. 3. As expected, no change in β-actin (B-ACT) expression was detected (+/− one-fold) when cells were treated with valproate. However, a greater than 2-fold change in expression levels was measured for each of the five other genes tested: nidogoen (NID), silver (SIL), dopamine β-hydroxylase (DBH), dopa decarboxylase (DDC) and chromogranin B (CG-B).

SMILES: CCCC(CCC)C(=O)O [valproate]
- expression ratio Φ: myelin-associated glycoprotein (MAG) ([1]; vs no valproate, M22357 SEQ ID NO: 1): 2.16
- expression ratio Φ: calmodulin ([1]; AF178845 SEQ ID NO: 5): −1.95
- expression ratio Φ: SCG10 ([1]; AY004290 SEQ ID NO: 4): −1.43
- expression ratio Φ: selenoprotein P ([1]; D25221 SEQ ID NO: 11): 1.51
- expression ratio Φ: plasma membrane calcium ATPase ([1]; J03753 SEQ ID NO: 12): −1.36
- expression ratio Φ: GAP-43 ([1]; L21191 SEQ ID NO: 3): −1.88
- expression ratio Φ: 2′,3′-cyclic nucleotide-3′ phosphodiesterase (CNPI) ([1]; M18630 SEQ ID NO: 2): 1.92
- expression ratio Φ: calcineurin A ([1]; M29275 SEQ ID NO: 6): −1.43
- expression ratio Φ: kinesin light chain C ([1]; M75148 SEQ ID NO: 8): −1.53
- expression ratio Φ: hypoxanthine-guanine phosphoribosyltransferase ([1]; M86443 SEQ ID NO: 10): −1.37
- expression ratio Φ: cysteine-rich protein ([1]; U09567 SEQ ID NO: 9): 1.49
- expression ratio Φ: protein kinase C-binding protein NELL2 ([1]; U48245 SEQ ID NO: 7): −1.7
- change in expression level by RT-PCR: chromogranin B (CG-B) (NBFL cell line): greater than 2 fold
- change in expression level by RT-PCR: dopa decarboxylase (DDC) (NBFL cell line): greater than 2 fold
- change in expression level by RT-PCR: dopamine β-hydroxylase (DBH) (NBFL cell line): greater than 2 fold
- change in expression level by RT-PCR: nidogoen (NID) (NBFL cell line): greater than 2 fold
- change in expression level by RT-PCR: silver (SIL) (NBFL cell line): greater than 2 fold
